{
  "source": "patent US20220233512A1",
  "about": "“INHIBITING AN IMMUNE RESPONSE MEDIATED BY ONE OR MORE OF TLR2, RAGE, CCR5, CXCR4 AND CD4” (priority 2020, published 2022)",
  "target": "T1, FLNA-TLR2 association (Homo sapiens, UniProt P21333)",
  "T1 construct": "Human postmortem frontal cortex slices; from tissue; host or cells: human postmortem frontal cortex slices",
  "T1 sequence (P21333 2-2647 limits assumed)": "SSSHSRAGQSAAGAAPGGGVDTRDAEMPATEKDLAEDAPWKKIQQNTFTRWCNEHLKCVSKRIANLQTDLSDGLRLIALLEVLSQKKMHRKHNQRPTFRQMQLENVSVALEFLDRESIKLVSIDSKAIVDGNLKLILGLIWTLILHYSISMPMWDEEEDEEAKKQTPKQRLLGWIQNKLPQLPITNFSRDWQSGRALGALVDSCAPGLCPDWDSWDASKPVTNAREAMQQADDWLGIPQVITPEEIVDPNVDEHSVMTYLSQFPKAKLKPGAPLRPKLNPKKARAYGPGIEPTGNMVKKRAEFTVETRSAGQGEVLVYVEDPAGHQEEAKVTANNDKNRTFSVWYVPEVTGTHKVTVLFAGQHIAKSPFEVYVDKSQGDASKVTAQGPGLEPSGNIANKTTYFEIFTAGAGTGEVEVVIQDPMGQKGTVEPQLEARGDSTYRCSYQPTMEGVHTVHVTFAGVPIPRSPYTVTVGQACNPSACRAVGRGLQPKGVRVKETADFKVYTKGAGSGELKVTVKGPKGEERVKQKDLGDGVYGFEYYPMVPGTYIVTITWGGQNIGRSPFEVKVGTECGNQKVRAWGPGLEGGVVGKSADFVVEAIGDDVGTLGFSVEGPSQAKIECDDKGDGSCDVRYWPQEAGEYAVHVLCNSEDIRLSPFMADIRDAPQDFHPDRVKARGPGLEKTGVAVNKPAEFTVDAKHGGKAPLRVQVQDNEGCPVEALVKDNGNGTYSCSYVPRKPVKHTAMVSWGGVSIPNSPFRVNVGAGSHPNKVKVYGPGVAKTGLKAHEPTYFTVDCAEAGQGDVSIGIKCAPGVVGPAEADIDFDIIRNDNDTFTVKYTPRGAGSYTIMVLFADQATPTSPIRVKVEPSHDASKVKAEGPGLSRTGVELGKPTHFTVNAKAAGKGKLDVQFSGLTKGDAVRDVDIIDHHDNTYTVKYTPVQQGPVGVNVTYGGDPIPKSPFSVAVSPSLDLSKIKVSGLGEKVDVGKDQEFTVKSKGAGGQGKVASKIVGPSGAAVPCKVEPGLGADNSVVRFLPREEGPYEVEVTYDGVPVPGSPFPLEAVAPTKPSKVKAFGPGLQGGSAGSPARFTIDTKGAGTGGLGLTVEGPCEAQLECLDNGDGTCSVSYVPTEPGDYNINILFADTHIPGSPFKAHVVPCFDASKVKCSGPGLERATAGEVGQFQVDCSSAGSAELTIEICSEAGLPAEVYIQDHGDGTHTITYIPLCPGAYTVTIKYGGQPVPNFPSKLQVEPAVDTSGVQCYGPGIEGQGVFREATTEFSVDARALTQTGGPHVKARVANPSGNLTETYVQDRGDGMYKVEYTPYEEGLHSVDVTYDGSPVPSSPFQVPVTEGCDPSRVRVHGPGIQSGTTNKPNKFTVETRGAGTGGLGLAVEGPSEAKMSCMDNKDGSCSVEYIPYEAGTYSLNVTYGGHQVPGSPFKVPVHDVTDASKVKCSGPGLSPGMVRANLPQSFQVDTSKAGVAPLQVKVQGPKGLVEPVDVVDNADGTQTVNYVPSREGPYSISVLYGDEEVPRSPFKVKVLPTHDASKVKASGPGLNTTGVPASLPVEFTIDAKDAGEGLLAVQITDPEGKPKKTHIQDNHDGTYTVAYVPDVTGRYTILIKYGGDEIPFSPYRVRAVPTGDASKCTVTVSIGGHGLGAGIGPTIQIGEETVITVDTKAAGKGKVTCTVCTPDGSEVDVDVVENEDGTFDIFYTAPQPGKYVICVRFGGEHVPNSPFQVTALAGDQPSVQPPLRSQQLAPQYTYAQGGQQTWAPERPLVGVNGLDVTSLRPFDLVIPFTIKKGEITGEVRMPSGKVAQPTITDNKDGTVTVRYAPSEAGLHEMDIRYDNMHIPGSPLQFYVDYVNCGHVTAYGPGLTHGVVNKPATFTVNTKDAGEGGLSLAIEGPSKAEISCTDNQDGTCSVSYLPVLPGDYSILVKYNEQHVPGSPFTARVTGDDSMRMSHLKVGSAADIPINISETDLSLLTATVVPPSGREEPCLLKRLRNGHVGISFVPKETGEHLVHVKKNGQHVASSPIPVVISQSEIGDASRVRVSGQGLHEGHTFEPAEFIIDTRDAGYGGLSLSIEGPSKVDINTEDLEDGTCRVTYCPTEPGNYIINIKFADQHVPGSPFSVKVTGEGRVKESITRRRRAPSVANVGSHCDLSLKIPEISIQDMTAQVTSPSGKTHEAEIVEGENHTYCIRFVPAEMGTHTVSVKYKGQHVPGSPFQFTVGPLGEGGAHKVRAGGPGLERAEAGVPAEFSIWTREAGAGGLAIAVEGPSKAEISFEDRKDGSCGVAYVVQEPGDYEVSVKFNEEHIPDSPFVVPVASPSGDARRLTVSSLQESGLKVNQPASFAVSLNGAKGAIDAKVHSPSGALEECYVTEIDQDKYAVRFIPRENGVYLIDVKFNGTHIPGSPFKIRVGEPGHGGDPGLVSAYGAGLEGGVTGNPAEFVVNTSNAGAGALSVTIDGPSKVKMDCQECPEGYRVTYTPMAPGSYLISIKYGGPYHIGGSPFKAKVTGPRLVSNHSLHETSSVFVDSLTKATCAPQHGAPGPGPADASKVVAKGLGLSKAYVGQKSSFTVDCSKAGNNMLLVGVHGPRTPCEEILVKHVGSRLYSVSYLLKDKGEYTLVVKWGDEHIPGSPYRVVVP",
  "assay": "FLNA-TLR2 association in human postmortem frontal cortex slices",
  "assay_type": "cell-based",
  "conditions": "1 or 10 nM compound; LTA-SA, PGN-SA or Ab42; p<0.01",
  "description": "As will be seen from examination of FIG. 3 and FIG. 4, the ratio of TLR2 to FLNA increased with administration of each of LTA-SA, PGN-SA and Ab42 at a statistically significant amount relative to the control (p<0.01). Those changes in expression of TLR2 relative to FLNA were each inhibited by the presence of the 1 or 10 nM Compound C0105 at a statistically significant amount relative to the control (p<0.01) and relative to the ligand used. See, FIG. 3B.\nPostmortem frontal cortex tissues were gradually thawed (from −80° C. to −20° C.) and were sliced using a chilled McIlwain tissue chopper ([…]). […]\nThe resultant immunocomplexes were pelleted by centrifugation at 4° C. […] The content of a7nAChRs in 50% of the obtained anti-Ab42 immunoprecipitate was determined by Western blotting with monoclonal anti-a7nAChR antibodies. […]\nThe content of b-actin in resultant immunoprecipitates is then analyzed by immunoblotting using monoclonal anti-b-actin to illustrate even immunoprecipitation efficiency and loading. […]",
  "data": [
    {"molecule": "CN1CCC2(CC1)NCC(=O)N2Cc1ccccc1", "note": "[Compound C0105M]", "values": [
      {"measurement": "Ligand-induced change in TLR2 relative to FLNA (TLR2/FLNA ratio)", "value": "inhibited"}
    ]}
  ]
}
